Data on 26 compounds can be found in patent publication US20060128695A1, “Cyclic nucleotide phosphodiesterase inhibitors, preparation and uses” (NEURO3D, priority 2002, published 2006).

For orientation: IC50 means the concentration at which inhibition is half-maximal. As a reminder, the inhibition is the percentage by which the read-out fell short of the control.

The target in the first test is T1, PDE2 (Bos taurus, UniProt P14099).
T1 construct: PDE2 was prepared from bovine endothelial cells by the same methods; endogenous in cells; host or cells: bovine endothelial cells
T1 sequence (P14099 1-921): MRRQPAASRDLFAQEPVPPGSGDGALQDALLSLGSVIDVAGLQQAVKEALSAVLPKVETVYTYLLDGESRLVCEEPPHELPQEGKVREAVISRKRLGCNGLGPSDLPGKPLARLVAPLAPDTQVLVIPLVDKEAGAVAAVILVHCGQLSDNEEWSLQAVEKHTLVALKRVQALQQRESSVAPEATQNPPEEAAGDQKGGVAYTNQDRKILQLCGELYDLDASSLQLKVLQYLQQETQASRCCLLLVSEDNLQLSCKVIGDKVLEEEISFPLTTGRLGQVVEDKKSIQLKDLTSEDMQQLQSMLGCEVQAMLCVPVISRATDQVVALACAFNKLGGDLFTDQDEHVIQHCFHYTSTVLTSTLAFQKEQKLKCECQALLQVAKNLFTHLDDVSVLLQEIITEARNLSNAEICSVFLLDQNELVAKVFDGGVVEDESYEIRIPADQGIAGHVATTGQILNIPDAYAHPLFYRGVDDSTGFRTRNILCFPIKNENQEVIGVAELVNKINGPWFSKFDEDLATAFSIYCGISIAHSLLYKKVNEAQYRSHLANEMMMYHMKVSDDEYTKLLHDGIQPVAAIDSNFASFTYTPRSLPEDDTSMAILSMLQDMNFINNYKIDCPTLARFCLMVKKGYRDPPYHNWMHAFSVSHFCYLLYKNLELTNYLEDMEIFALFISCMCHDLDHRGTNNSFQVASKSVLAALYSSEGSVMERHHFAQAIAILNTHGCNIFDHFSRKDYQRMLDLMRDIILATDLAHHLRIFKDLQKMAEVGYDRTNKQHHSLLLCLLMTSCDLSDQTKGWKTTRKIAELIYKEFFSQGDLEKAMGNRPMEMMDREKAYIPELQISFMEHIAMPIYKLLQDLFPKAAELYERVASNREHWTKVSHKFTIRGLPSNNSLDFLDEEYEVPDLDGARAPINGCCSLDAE
Kind of test: Inhibition of PDE2, radioenzymatic phosphodiesterase assay. Format: biochemical, bovine.
Conditions: not given
In turn, `COc1cc2c(cc1OC)N(C)C(=O)CN=C2c1cccc(-c2ccc(Cl)cc2)c1` [Compound 6j, 5-(4′-chloro-1,1′-biphenyl-3-yl)-7,8-dimethoxy-1-methyl-1,3-dihydro-2H-1,4-benzodiazepin-2-one] yielded an IC50 of 0.71 µM.

With `COc1cc2c(cc1OC)N(C)C(=O)CN=C2c1ccc(Cl)c(Cl)c1` [Compound 17j, 5-(3,4-dichlorophenyl)-7,8-dimethoxy-1-methyl-1,3-dihydro-1,4-benzodiazepin-2-one], the 50% inhibitory concentration (IC50) came to 7 µM.

On to `COc1cc2c(cc1OC)N(C)C(=O)CN=C2c1cccc(C(C)=O)c1` [Compound 17e, 5-(3-acetylphenyl)-7,8-dimethoxy-1-methyl-1,3-dihydro-1,4-benzodiazepin-2-one], for which it took 6.7 µM to reach half-maximal inhibition (IC50).

For the compound `COc1cc2c(cc1OC)N(C)C(=O)CN=C2c1cccc(C)c1` [Compound 17k, 7,8-dimethoxy-1-methyl-5-(3-methylphenyl)-1,3-dihydro-1,4-benzodiazepin-2-one], the midpoint of inhibition, the IC50, lay at 3.7 µM.

`COc1cc2c(cc1OC)N(C)C(=O)CN=C2c1cccc(C#N)c1` [Compound 4a, 3-(7,8-dimethoxy-1-methyl-2-oxo-2,3-dihydro-1H-1,4-benzodiazepin-5-yl)-benzonitrile]: the midpoint of inhibition, the IC50, lay at 6.7 µM.

With `COc1cc2c(c(Br)c1OC)C(c1cccc(C#N)c1)=NCC(=O)N2C` [Compound 24b, 3-(6-bromo-7,8-dimethoxy-1-methyl-2-oxo-2,3-dihydro-1H-1,4-benzodiazepin-5-yl)benzonitrile], the half-maximal inhibitory concentration (IC50) came out at 3.3 µM.

With `COc1cc2c(cc1OC)N(C)C(=O)CN=C2c1cccc(C#CCN2CCCCC2)c1` [Compound 6c, 7,8-dimethoxy-1-methyl-5-[3-(3-piperidin-1-ylprop-1-ynyl)phenyl]-1,3-dihydro-2H-1,4-benzodiazepin-2-one], half-maximal inhibition (IC50) was put at 4.3 µM.

For the compound `COc1cc2c(cc1OC)N(C)C(=O)CN=C2c1cccc(CN)c1` [Compound 8a, 5-[3-(aminomethyl)phenyl]-7,8-dimethoxy-1-methyl-1,3-dihydro-2H-1,4-benzodiazepin-2-one], the half-maximal inhibitory concentration (IC50) came to 9 µM.

Compound `COc1ccc2c(c1)N(C)C(=O)CN=C2c1cccc(C(N)=O)c1` [Compound 5l, 3-(8-methoxy-1-methyl-2-oxo-2,3-dihydro-1H-1,4-benzodiazepin-5-yl)benzamide] registered a half-maximal inhibitory concentration (IC50) of 14 µM.

The same test, now with this note: 1 μM cyclic AMP; PDE2 from bovine endothelial cells; read-out: PDE2 IC50.
As for “Tert-butyl-3-[5-(cyanophenyl)-(7,8-dimethoxy-1-methyl-2-oxo-2,3-dihydro-1H-1,4-benzodiazepin-9-yl)phenyl]prop-2-ynylcarbamate [Compound 25c]”, the IC50 was 3.4 µM.

The same test, now with this note: 10 μM test compound; PDE2 from bovine endothelial cells.
For `COc1ccc(CN2C(=O)CN=C(c3cccc(C#N)c3)c3cc(OC)c(OC)cc32)cc1` [Compound 4e, 3-[7,8-dimethoxy-l-(4-methoxybenzyl)-2-oxo-2,3-dihydro-1H-1,4-benzodiazepin-5-yl]-benzonitrile], the “PDE2 percentage inhibition at 10 μM” value was 13.9%.

Still in this test, the particulars now being: 10 μM test compound; PDE2 from bovine endothelial cells; read-out: PDE2 percentage inhibition at 10 μM.
For `COc1cc2c(cc1OC)N(C)C(=O)CN=C2c1cccc(NC(C)=O)c1` [Compound 17n, N-[3-(7,8-dimethoxy-1-methyl-2-oxo-2,3-dihydro-1H-1,4-benzodiazepin-5-yl)phenyl]acetamide], the inhibition at 10 µM was 38%.

`COc1cc2c(cc1OC)N(C)C(=O)CN=C2c1cccc(C(=O)O)c1` [Compound 35a, 3-(7,8-dimethoxy-1-methyl-2-oxo-2,3-dihydro-1H-1,4-benzodiazepin-5-yl)benzoic acid]: the inhibition at 10 µM is 26%.

Staying with this test, now noted: read-out: PDE2 percentage inhibition at 10 μM.
As for `COc1cc2c(cc1OC)N(C)C(=O)CN=C2c1cccc(-c2ccc(C#N)cc2)c1` [Compound 6m, 3′-(7,8-dimethoxy-1-methyl-2-oxo-2,3-dihydro-1H-1,4-benzodiazepin-5-yl)-1,1′-biphenyl-4-carbonitrile], the inhibition at 10 µM is 82.3%.

On to `CCN1C(=O)CN=C(c2cccc(C#CCOCc3ccccc3)c2)c2cc(OC)c(OC)cc21` [Compound 6k, 5-{3-[3-(benzyloxy)prop-1-ynyl]phenyl}-1-ethyl-7,8-dimethoxy-1,3-dihydro-2H-1,4-benzodiazepin-2-one], for which the inhibition at 10 µM amounted to 69.7%.

In the case of `COc1cc2c(cc1OC)N(Cc1ccccc1)C(=O)CN=C2c1cccc(C(N)=O)c1` [Compound 5h, 3-(1-benzyl-7,8-dimethoxy-2-oxo-2,3-dihydro-1H-1,4-benzodiazepin-5-yl)benzamide], the inhibition at 10 µM came to 0%.

For `COc1cc2c(cc1OC)N(C)C(=O)CN=C2c1cccc(C(=O)NCCCCCC(N)=O)c1` [Compound 36c, N-(6-amino-6-oxohexyl)-3-(7,8-dimethoxy-1-methyl-2-oxo-2,3-dihydro-1H-1,4-benzodiazepin-5-yl)benzamide], the inhibition at 10 µM came to 46%.

Regarding `COc1ccc2c(c1)C(c1ccccc1)=NCC(=O)N2` [Compound 28e, 7-methoxy-5-phenyl-1,3-dihydro-2H-1,4-benzodiazepin-2-one], the inhibition at 10 µM came out at 8.8%.

As for `COc1cc2c(cc1OC)N(Cc1ccc(Cl)cc1)C(=O)CN=C2c1cccc(C#N)c1` [Compound 4c, 3-[1-(4-chlorobenzyl)-7,8-dimethoxy-2-oxo-2,3-dihydro-1H-1,4-benzodiazepin-5-yl]-benzonitrile], the inhibition at 10 µM was 35.3%.

Turning to `CCN1C(=O)CN=C(c2cccc(C#N)c2)c2cc(OC)c(OC)cc21` [Compound 4k, 3-(1-ethyl-7,8-dimethoxy-2-oxo-2,3-dihydro-1H-1,4-benzodiazepin-5-yl)benzonitrile], the inhibition at 10 µM came out at 75.9%.

As to `COc1cc2c(cc1OC)N(Cc1cccc(Cl)c1)C(=O)CN=C2c1cccc(C#N)c1` [Compound 4f, 3-[1-(3-chlorobenzyl)-7,8-dimethoxy-2-oxo-2,3-dihydro-1H-1,4-benzodiazepin-5-yl]-benzonitrile], the inhibition at 10 µM was 17.1%.

Consider `COc1cc2c(cc1OC)N(Cc1cccc(C(F)(F)F)c1)C(=O)CN=C2c1cccc(C#N)c1` [Compound 4g, 3-{7,8-dimethoxy-2-oxo-1-[3-(trifluoromethyl)benzyl]-2,3-dihydro-1H-1,4-benzodiazepin-5-yl]-benzonitrile], for which the inhibition at 10 µM was found to be 14.3%.

Take `COc1cc2c(cc1OC)N(C)C(=O)C(Cc1ccc(Cl)c(Cl)c1)N=C2c1cccc(C(N)=O)c1` (stereo not shown) [Compound 5k, 3-[3-(3,4-dichlorobenzyl)-7,8-dimethoxy-1-methyl-2-oxo-2,3-dihydro-1H-1,4-benzodiazepin-5-yl]benzamide]: the inhibition at 10 µM was determined as 67.8%.

In the case of `COc1cc2c(c(Br)c1OC)NC(=O)CN=C2c1ccccc1` [Compound 28f, 9-bromo-7,8-dimethoxy-5-phenyl-1,3-dihydro-2H-1,4-benzodiazepin-2-one], the inhibition at 10 µM came to 13.5%.

For the compound `COc1cc2c(c(-c3ccccc3)c1OC)C(c1cccc(C#N)c1)=NCC(=O)N2C` [Compound 25b, 3-(7,8-dimethoxy-1-methyl-2-oxo-6-phenyl-2,3-dihydro-1H-1,4-benzodiazepin-5-yl)benzonitrile], the inhibition at 10 µM is 22.9%.

Take `COc1cc2c(cc1OC)N(Cc1ccccc1Cl)C(=O)CN=C2c1cccc(C#N)c1` [Compound 4h, 3-[1-(2-chlorobenzyl)-7,8-dimethoxy-2-oxo-2,3-dihydro-1H-1,4-benzodiazepin-5-yl]-benzonitrile]: the inhibition at 10 µM amounted to 16%.

A further test deals with PDE4. Kind of test: Selectivity: inhibition of PDE4, radioenzymatic phosphodiesterase assay. Format: biochemical, bovine. The following applies: 10 μM test compound; vascular smooth muscle. The protocol:
A 3 g segment of bovine aortic media cut into pieces with scissors was homogenized with an ultra-turrax then a potter glass/glass homogenizer in 7 volumes by weight of buffer A containing a protease inhibitor cocktail (20 mM Tris-HCl, 0.25 M saccharose, 2 mM magnesium acetate, 1 mM dithiothreitol, 5 mM EGTA, 2000 U/ml aprotinin, 10 mg/l leupeptin and 10 mg/l soya trypsic inhibitor). The homogenizate was centrifuged at 105,000 g for 1 hour. The supernatant was loaded on a DEAE-Sephacel column (15 x 1.6 cm) pre-equilibrated with buffer B (buffer A without the saccharose, EGTA and protease inhibitors). The column was washed until there was no detectable absorption at 280 nm, then eluted with a linear gradient of NaCl (0-0.5 M) in buffer B. 3-ml fractions were collected and enzyme activity was determined under the conditions described hereinbelow to localize the different enzymes PDE1, PDE3, PDE4 and PDE5 which were aliquoted and frozen at −80° C. (Lugnier et al., Biochem. Phamacol., 1986, 35: 1746-1751). PDE2 was prepared from bovine endothelial cells by the same methods (Lugnier and Schini, Biochem. Pharmacol., 1990, 39: 75-84).
Cyclic nucleotide phosphodiesterase activity was determined by a radioenzymatic method using tritium-labelled cyclic GMP or AMP (1 μM) as substrate (Lugnier et al., 1986). ^3H-labelled adenosine or guanosine monophosphate formed by hydrolysis of the radiolabelled cyclic nucleotide was then converted to ^3H-labelled adenosine or guanosine in a second reaction with […] in excess. The nucleoside formed was separated from the nucleotides by anion exchange chromatography. Nucleoside radioactivity was determined by liquid scintillation counting. Enzymatic incubations were carried out under conditions allowing no more than 15% hydrolysis of the substrate; each point was performed in duplicate.
The activity of the compounds was evaluated on other phosphodiesterase isoforms, particularly basal state or calmodulin-activated PDEl from vascular smooth muscle, PDE3, PDE4 and PDE5 from vascular smooth muscle.
The results obtained are presented in Tables 1 and 2 hereinbelow and are expressed as the percentage inhibition of enzymatic activity produced by […] of the test compound.
On to `COc1cc2c(cc1OC)N(C)C(=O)CN=C2c1cccc(-c2ccc(C#N)cc2)c1` [Compound 6m, 3′-(7,8-dimethoxy-1-methyl-2-oxo-2,3-dihydro-1H-1,4-benzodiazepin-5-yl)-1,1′-biphenyl-4-carbonitrile], for which the “PDE4 percentage inhibition at 10 μM” value is listed as 37.3%.

The test is the same for the next values; noted with them: vascular smooth muscle; cells without % sign.
`COc1cc2c(cc1OC)N(C)C(=O)CN=C2c1cccc(-c2ccc(Cl)cc2)c1` [Compound 6j, 5-(4′-chloro-1,1′-biphenyl-3-yl)-7,8-dimethoxy-1-methyl-1,3-dihydro-2H-1,4-benzodiazepin-2-one] returned a concentration for half-maximal inhibition (IC50) of 2.8 µM.
